Reference: patent EP0129628A1, “Medicine, especially useful in psychiatry, which uses as the active constituent a lithium N-alkylcarbamoyl phosphate” (Richard, Marcel, priority 1983, dated 1985)

Legend:
test plaque chaude = assay: comparative analgesic activity (hot plate test); format: in vivo, souris et/ou des chiens; conditions: dose de 13 MEq par kilo
[1] = test system: systèmes dopaminer- gines; assay: test evaluating blockade of the dopaminergic systems; format: in vivo, souris et/ou des chiens
sécrétion de sérotonine = assay: test on serotonin secretion; format: in vivo, souris et/ou des chiens
motilité = assay: motility test; format: in vivo, souris et/ou des chiens; conditions: dose de 13,5 MEq par kilo (carbonate de lithium: dose correspondante)
[2] = acute toxicity (DL50), oral route; conditions: mouse, in vivo, souris, par voie orale
Experimental: L'invention concerne enfin les médicaments qui contiennent au moins un produit de formule (1). Il a été trouvé en effet que les produits de formule (1) avaient une toxicité faible (la DL50 pour la souris et pour le produit de formule 1 dans lequel R est CH3 étant environ 3 200 mg/kg par voie orale) et une activité pharmacologique qui peut s'exprimer comme suit : • - diminution et/ou blocage des systèmes dopaminer- giques, • - augmentation, au moins transitoire, de la systhè- se de la sérotonine, • - pouvoir analgésique, les conséquences de ces actions se retrouvant dans les constatations suivantes : • - diminution de l'agressivité, • - diminution de la motilité et de la curiosité, • - protection contre les convulsions.

[3] = test system: agressivité induite par des chocs électriques; assay: aggressiveness induced by electric shocks; format: in vivo, souris et/ou des chiens
[4] = test system: convulsions produites par un électrochoc; assay: convulsions produced by electroshock; format: in vivo, souris et/ou des chiens; conditions: dose de 5 MEq par kilo

For `O=C(O)O` [carbonate de lithium, reference compound], the protection (test plaque chaude) was 27%, the “dose active à 50 %” value [1] was 10,115 MEq par kilo and the “dose active après 24 heures” value (sécrétion de sérotonine) was 10 MEq par kilo. The “la motilité baisse” value (motilité) was 12%.

`CNC(=O)OP(=O)(O)O` [N-méthyl-carbamoylphosphate de lithium] gave an LD50 [2] of roughly 3200 mg/kg, a dose active [3] of 10 MEq par kilo and a protection des sujets [4] of 40%. The protection (test plaque chaude) was 42%, the “dose active à 100 %” value [1] was 6,75 MEq par kilo and the “dose active après 24 heures” value (sécrétion de sérotonine) was 6,75 MEq par kilo. The “la motilité baisse” value (motilité) was 36%.
